Source: patent US20240018153A1, “BENZENESULFONAMIDE DERIVATIVES AND USES THEREOF” (2692372 ONTARIO, INC., priority 2020, published 2024)

Key:
JAK3 = JAK3 (Homo sapiens (Human), UniProt P52333); assay: HTRF KinEASE-TK kinase assay, JAK3; format: biochemical; conditions: for remaining activity at 1 µM: read-out: % JAK3 Remaining activity vs DMSO (1 μM, 3 h); for remaining activity at 10 µM: read-out: % JAK3 Remaining activity vs DMSO (10 μM, 3 h)
Method: (§1) Kinase activity was monitored using a HTRF® KinEASE-TK kit from Cisbio (62TK0PEC). […] JAK-3 was purchased from Promega. 0.0133 ng/ul JAK3 (0.21 nM) was preincubated in the absence or presence of inhibitor at room temperature for 3 hours. Reaction with substrate was then initiated by adding biotinylated substrate and ATP. […] The reaction was terminated by adding 31.25 nM SA-XL665 and 100 fold diluted europium labelled antibody (Eu-Ab), diluted in 1× detection buffer that contained EDTA. After 60 min of incubation, the fluorescence emission was measured at 620 nm and 665 nm. The ratio of Em 665 nm to Em 620 nm was proportional to the amount of substrate phosphorylated by the kinase.

FGFR4 = FGFR4 (Homo sapiens (Human), UniProt P22455); assay: HTRF KinEASE-TK kinase assay, FGFR4; format: biochemical; conditions: for remaining activity at 1 µM: read-out: % FGFR4 Remaining activity vs DMSO (1 μM, 3 h); for remaining activity at 10 µM: read-out: % FGFR4 Remaining activity vs DMSO (10 μM, 3 h); for IC50: dose response
Method: as §1, with “FGFR-4” for “JAK-3”, “0.333” for “0.0133”, “FGFR4 (5.12” for “JAK3 (0.21”

BTK [1] = molecular target: T1, BTK (Homo sapiens (Human), UniProt Q06187); assay: HTRF KinEASE-TK kinase assay, BTK; format: biochemical; conditions: 3 h preincubation; for remaining activity at 1 µM: 1 μM compound, read-out: % BTK Remaining activity vs DMSO (1 μM, 3 h); for remaining activity at 10 µM: 10 μM compound, read-out: % BTK Remaining activity vs DMSO (10 μM, 3 h)
Method: Kinase activity was monitored using a HTRF® KinEASE-TK kit from Cisbio (62TK0PEC). For BTK, the 1× kinase buffer was supplemented with 10 mM MnCl2, 5 mM MgCl2, 1 uM ATPγS, 1 mM TCEP and 100 fold diluted Supplementary Enzyme Buffer. BTK was purchased from Promega. […] Reaction with substrate was then initiated by adding biotinylated substrate and ATP and the reaction was allowed to proceed for 45 min. […] After 60 min of incubation, the fluorescence emission was measured at 620 nm and 665 nm. The ratio of Em 665 nm to Em 620 nm was proportional to the amount of substrate phosphorylated by the kinase.

BMX = BMX (Homo sapiens (Human), UniProt P51813); assay: HTRF KinEASE-TK kinase assay, BMX; format: biochemical; conditions: for remaining activity at 1 µM: 1 uM compound; for remaining activity at 1 µM / remaining activity at 10 µM: 3 h preincubation; for remaining activity at 10 µM: 10 uM compound; for IC50: dose response
Method: as §1, with “BMX” for “JAK-3”, “0.333” for “0.0133”, “BMX (3.03” for “JAK3 (0.21”, “The reaction” for “Reaction”, “Reaction” for “The reaction”

BTK [2] = molecular target: T1, BTK; assay: Ramos RA1 cell lysis and immunoassay, phospho-BTK (Y223) inhibition; format: cell-based; parameters: key: X: BTK bound and autophosphoration of BTK inhibited in cells; conditions: RAMOS cells
Method: Ramos RA 1 cells (ATCC) were cultured in RPMI-1640 media (Wisent) supplemented with 10% heat-inactivated FBS and 1% penicillin/streptomycin. Cells were seeded in 6-well plates at 1.71×10^6 cells/well and incubated at 37° C., 5% CO2 for 16 hours. Cells were treated with compound at the indicated concentrations or DMSO alone and incubated at 37° C., 5% CO2 for 24 hours. Cell suspensions were centrifugated at 1,400-1,600 RPM for 5 minutes at room temperature and supernatants were discarded. Cell pellets were resuspended with 1× RIPA buffer (Millipore) and incubated on ice for 15 minutes. Protein lysates were extracted by centrifugating at 20,000 RPM for 20 minutes at 4° C. Proteins were separated and total BTK protein levels were quantified by Simple Western Immunoassay (ProteinSimple) using the 12-230 kDa Jess Separation Module according to the manufacturer's protocol, using a protein concentration of 0.25 μg/μl and antibodies targeting BTK (clone #D3H5, Cell Signalling) and β-Actin (clone #AC-15, Santa Cruz) diluted to 1:400 and 1:10, respectively, where the latter was used as a loading control. An equal ratio of rabbit and mouse HRP-conjugated secondary antibodies was used for detection. BTK protein levels were quantified relative to S-Actin loading levels and subsequently normalized to the DMSO control. Phosphorylated BTK levels were quantified using the Protein Normalization Assay Module for Jess (ProteinSimple) according to the manufacturer's protocol, using a protein concentration of 1.5 μg/μl and an antibody targeting pBTK (Y223) (Cell Signalling) diluted to 1:50. Phosphorylated BTK levels were quantified relative to the Protein Normalization Reagent and subsequently normalized to the DMSO control.

EGFR = EGFR (Homo sapiens (Human), UniProt P00533); assay: HTRF KinEASE-TK kinase assay, EGFR; format: biochemical; conditions: 3 h preincubation; for remaining activity at 1 µM: 1 μM compound, read-out: % EGFR Remaining activity vs DMSO (1 μM, 3 h); for remaining activity at 10 µM: 10 μM compound, read-out: % EGFR Remaining activity vs DMSO (10 μM, 3 h)
Method: Kinase activity was monitored using a HTRF® KinEASE-TK kit from Cisbio (62TK0PEC). The buffer used was 1× kinase buffer supplemented with 2 mM MnCl2, 5 mM MgCl2, 1 mM TCEP and 100× diluted Supplementary Enzyme Buffer. EGFR was purchased from Promega. […] Reaction with substrate was then initiated by adding biotinylated substrate and ATP. […] After 60 min of incubation, the fluorescence emission was measured at 620 nm and 665 nm. The ratio of Em 665 nm to Em 620 nm was proportional to the amount of substrate phosphorylated by the kinase.
For initial screening, enzymes were pre incubated with compounds at 2 different concentrations (1 and 10 uM final) and 0.5% DMSO.

RIPK2 = RIPK2 (Homo sapiens (Human), UniProt O43353); assay: In vitro RIPK2 inhibition; format: biochemical; conditions: for remaining activity at 1 µM: read-out: % RIPK2 Remaining activity vs DMSO (1 μM, 3 h); for remaining activity at 10 µM: read-out: % RIPK2 Remaining activity vs DMSO (10 μM, 3 h)
Sequence of RIPK2 (O43353 whole entry, species assumed): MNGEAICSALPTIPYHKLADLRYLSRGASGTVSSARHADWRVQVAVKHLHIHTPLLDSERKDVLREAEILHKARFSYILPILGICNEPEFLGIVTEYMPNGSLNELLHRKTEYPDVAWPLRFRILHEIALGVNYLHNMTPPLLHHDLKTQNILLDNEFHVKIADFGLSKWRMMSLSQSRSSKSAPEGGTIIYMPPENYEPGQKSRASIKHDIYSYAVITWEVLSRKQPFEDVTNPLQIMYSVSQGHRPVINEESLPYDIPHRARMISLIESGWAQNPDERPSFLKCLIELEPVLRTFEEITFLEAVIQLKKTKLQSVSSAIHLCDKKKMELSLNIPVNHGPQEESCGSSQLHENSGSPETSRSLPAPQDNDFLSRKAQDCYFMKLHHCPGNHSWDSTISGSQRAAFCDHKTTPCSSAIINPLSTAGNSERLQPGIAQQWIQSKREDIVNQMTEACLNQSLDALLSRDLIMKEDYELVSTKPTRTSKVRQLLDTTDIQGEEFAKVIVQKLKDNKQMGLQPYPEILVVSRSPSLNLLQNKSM

Sequence of BMX (P51813 whole entry): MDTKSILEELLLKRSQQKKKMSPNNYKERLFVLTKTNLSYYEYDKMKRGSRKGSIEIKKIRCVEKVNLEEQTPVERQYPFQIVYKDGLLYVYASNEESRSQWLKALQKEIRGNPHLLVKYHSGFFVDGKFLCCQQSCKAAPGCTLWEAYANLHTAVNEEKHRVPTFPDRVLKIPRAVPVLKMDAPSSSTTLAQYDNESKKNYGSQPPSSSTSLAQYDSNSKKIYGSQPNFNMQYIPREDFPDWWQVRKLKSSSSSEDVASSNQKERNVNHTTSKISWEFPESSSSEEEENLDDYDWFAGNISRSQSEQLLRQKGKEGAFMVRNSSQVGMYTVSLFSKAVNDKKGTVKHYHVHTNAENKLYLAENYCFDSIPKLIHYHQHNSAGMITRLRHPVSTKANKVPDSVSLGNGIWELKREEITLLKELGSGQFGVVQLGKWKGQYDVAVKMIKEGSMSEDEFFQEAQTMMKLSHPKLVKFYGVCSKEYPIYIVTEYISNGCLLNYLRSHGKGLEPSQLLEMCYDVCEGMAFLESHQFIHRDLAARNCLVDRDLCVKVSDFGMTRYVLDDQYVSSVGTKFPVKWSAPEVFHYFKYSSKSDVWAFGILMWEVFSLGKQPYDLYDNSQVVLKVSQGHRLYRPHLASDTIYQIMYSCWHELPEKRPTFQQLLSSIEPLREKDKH
Sequence of EGFR (P00533 25-1210): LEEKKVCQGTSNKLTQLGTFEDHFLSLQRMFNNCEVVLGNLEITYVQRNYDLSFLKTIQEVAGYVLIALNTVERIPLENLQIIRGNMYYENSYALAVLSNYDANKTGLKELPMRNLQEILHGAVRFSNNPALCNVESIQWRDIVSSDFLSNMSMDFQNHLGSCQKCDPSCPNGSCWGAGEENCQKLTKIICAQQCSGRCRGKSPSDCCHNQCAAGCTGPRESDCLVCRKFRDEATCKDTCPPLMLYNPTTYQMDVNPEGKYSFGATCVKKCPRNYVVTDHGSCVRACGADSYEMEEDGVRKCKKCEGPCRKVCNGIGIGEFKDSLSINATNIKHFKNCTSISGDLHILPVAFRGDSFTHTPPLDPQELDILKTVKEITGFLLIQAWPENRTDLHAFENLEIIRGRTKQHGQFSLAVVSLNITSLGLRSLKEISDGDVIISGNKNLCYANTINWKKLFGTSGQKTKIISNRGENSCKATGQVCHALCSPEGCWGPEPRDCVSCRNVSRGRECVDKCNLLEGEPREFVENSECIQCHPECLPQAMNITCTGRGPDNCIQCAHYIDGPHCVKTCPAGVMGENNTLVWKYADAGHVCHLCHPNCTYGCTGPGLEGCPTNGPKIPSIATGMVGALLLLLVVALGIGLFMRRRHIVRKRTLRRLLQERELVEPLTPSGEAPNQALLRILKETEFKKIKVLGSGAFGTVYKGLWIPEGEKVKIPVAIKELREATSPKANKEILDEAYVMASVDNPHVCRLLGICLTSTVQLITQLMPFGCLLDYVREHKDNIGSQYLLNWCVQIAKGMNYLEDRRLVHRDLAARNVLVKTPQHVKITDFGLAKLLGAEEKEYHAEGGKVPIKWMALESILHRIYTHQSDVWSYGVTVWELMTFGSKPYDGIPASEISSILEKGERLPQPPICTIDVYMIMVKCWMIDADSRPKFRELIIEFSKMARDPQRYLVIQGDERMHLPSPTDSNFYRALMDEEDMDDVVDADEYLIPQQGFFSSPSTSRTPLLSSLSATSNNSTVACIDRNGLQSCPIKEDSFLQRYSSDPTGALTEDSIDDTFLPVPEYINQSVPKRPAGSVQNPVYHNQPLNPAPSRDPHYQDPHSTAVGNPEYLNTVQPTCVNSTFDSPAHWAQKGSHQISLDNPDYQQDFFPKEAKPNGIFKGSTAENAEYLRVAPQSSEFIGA
Sequence of FGFR4 (P22455 22-802): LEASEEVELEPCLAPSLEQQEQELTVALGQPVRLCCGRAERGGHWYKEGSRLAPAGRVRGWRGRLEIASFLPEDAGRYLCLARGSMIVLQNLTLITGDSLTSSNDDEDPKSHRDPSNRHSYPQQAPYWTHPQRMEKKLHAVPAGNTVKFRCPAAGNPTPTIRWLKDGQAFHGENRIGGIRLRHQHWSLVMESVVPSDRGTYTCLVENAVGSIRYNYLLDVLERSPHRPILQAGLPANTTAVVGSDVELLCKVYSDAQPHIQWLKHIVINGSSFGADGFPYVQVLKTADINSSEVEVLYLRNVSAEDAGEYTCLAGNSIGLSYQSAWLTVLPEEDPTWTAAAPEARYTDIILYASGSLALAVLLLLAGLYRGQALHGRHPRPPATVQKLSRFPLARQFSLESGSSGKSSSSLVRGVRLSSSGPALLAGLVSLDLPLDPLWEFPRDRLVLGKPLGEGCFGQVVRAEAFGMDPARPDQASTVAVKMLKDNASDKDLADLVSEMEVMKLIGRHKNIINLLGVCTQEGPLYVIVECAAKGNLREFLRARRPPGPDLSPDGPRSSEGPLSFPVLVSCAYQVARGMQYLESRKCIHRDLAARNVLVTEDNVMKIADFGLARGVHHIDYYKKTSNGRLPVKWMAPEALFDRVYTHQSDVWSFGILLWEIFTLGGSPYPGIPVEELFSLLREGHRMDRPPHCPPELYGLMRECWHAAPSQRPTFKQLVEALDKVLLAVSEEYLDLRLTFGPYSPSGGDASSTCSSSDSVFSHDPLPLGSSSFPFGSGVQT
Sequence of JAK3 (P52333 781-1124): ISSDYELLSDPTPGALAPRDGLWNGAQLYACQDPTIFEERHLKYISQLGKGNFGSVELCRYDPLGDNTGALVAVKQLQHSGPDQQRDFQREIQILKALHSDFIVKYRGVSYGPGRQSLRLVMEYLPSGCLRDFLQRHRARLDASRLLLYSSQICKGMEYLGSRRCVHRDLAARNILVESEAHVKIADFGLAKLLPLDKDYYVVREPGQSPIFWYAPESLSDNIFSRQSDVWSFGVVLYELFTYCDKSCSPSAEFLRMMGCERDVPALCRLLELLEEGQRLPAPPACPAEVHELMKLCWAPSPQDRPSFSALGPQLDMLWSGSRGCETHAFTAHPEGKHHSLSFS
T1 sequence (Q06187 whole entry): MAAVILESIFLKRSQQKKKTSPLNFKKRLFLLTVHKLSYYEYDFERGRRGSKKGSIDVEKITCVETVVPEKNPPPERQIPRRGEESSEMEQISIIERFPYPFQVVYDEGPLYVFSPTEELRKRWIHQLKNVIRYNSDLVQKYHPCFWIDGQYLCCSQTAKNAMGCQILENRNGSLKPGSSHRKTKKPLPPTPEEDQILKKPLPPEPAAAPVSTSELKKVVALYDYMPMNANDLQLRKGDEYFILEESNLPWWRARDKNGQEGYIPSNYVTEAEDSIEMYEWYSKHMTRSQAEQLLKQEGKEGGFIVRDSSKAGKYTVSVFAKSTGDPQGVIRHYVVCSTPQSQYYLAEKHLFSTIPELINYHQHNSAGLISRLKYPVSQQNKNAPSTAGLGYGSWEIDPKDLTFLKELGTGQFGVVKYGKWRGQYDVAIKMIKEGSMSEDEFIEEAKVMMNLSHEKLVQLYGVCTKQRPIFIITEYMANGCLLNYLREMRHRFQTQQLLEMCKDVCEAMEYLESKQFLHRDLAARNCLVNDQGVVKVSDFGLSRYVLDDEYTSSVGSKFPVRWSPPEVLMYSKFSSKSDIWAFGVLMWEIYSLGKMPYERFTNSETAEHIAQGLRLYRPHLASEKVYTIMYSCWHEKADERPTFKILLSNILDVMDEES

Structure (SMILES)	remaining activity at 1 µM (JAK3)	remaining activity at 10 µM (JAK3)	remaining activity at 1 µM (FGFR4)	remaining activity at 10 µM (FGFR4)	remaining activity at 1 µM (BTK [1])	remaining activity at 10 µM (BTK [1])	remaining activity at 1 µM (BMX)	remaining activity at 10 µM (BMX)	pBTK inhibition (RAMOS, 24 h) (BTK [2]; compound concentration 1 μM)	remaining activity at 1 µM (EGFR)	remaining activity at 10 µM (EGFR)	IC50 (FGFR4)	IC50 (BMX)	IC50 (JAK3; dose response)	IC50 (BTK [1]; dose response, read-out: BTK Inhibition IC50)	pBTK inhibition (RAMOS, 24 h) (BTK [2]; compound concentration 2.5 μM)	pBTK inhibition (RAMOS, 24 h) (BTK [2]; compound concentration 10 μM)	remaining activity at 1 µM (RIPK2)	remaining activity at 10 µM (RIPK2)
COc1c(F)c(F)c(F)c(F)c1S(=O)(=O)n1nc(-c2ccc(Oc3ccccc3)cc2)c2c(N)ncnc21 [Compound I-23, 3-(4-phenoxyphenyl)-1-((2,3,4,5-tetrafluoro-6-methoxyphenyl)sulfonyl)-1H-pyrazolo[3,4-d]pyrimidin-4-amine]	> 90%	50 to 90%	> 90%	> 90%	< 50%	< 50%	< 50%	< 50%	X	–	–	–	–	–	–	–	–	–	–
Nc1ncnc2c1c(-c1ccc(Oc3ccccc3)cc1)nn2CCNS(=O)(=O)c1c(F)c(F)c(F)c(F)c1C(F)F [Compound I-22, N-(2-(4-amino-3-(4-phenoxyphenyl)-1H-pyrazolo[3,4-d]pyrimidin-1-yl)ethyl)-2-(difluoromethyl)-3,4,5,6-tetrafluorobenzenesulfonamide]	> 90%	50 to 90%	> 90%	< 50%	< 50%	< 50%	< 50%	< 50%	X	> 90%	< 50%	–	–	–	–	–	–	–	–
Nc1ncnc2c1c(-c1ccc(Oc3ccccc3)cc1)nn2C1CCN(S(=O)(=O)c2c(F)c(F)c(F)c(F)c2OC(F)F)C1 (stereo in doubt) [Compound I-26, (R)-1-(1-((2-(difluoromethoxy)-3,4,5,6-tetrafluorophenyl)sulfonyl)pyrrolidin-3-yl)-3-(4-phenoxyphenyl)-1H-pyrazolo[3,4-d]pyrimidin-4-amine]	50 to 90%	50 to 90%	< 50%	< 50%	< 50%	< 50%	< 50%	< 50%	X	> 90%	50 to 90%	< 1 µM	< 1 µM	–	–	–	–	–	–
COCCOc1ccc(Nc2ncc(F)c(Nc3cccc(NS(=O)(=O)c4c(F)c(F)c(F)c(F)c4C(F)(F)F)c3)n2)cc1 [Compound I-53, 2,3,4,5-tetrafluoro-N-(3-((5-fluoro-2-((4-(2-methoxyethoxy)phenyl)amino)pyrimidin-4-yl)amino)phenyl)-6-(trifluoromethyl)benzenesulfonamide]	< 50%	< 50%	< 50%	< 50%	< 50%	< 50%	< 50%	< 50%	–	50 to 90%	< 50%	< 1 µM	–	< 1 µM	< 1 µM	X	–	–	–
COCCOc1ccc(Nc2ncc(F)c(Nc3cccc(NS(=O)(=O)c4c(F)c(F)c(F)c(F)c4C(F)F)c3)n2)cc1 [Compound I-51, 2-(difluoromethyl)-3,4,5,6-tetrafluoro-N-(3-((5-fluoro-2-((4-(2-methoxyethoxy)phenyl)amino)pyrimidin-4-yl)amino)phenyl)benzenesulfonamide]	> 90%	50 to 90%	> 90%	< 50%	50 to 90%	< 50%	< 50%	< 50%	–	> 90%	> 90%	–	–	–	–	–	X	–	–
CN(CCn1nc(-c2ccc(Oc3ccccc3)cc2)c2c(N)ncnc21)C(=O)c1c(F)c(F)c(F)c(F)c1S(=O)(=O)N(C)C [Compound I-30, N-(2-(4-amino-3-(4-phenoxyphenyl)-1H-pyrazolo[3,4-d]pyrimidin-1-yl)ethyl)-2-(N,N-dimethylsulfamoyl)-3,4,5,6-tetrafluoro-N-methylbenzamide]	> 90%	50 to 90%	< 50%	< 50%	< 50%	< 50%	50 to 90%	< 50%	–	> 90%	50 to 90%	< 1 µM	–	–	–	–	–	50 to 90%	> 90%
CN(CCn1nc(-c2ccc(Oc3ccccc3)cc2)c2c(N)ncnc21)C(=O)c1c(F)c(F)c(F)c(F)c1S(C)(=O)=O [Compound I-28, N-(2-(4-amino-3-(4-phenoxyphenyl)-1H-pyrazolo[3,4-d]pyrimidin-1-yl)ethyl)-2,3,4,5-tetrafluoro-N-methyl-6-(methylsulfonyl)benzamide]	> 90%	< 50%	< 50%	< 50%	< 50%	< 50%	< 50%	< 50%	–	< 50%	< 50%	< 1 µM	< 1 µM	–	–	–	–	50 to 90%	> 90%
